Each structure is given as a SMILES string. pKi: −log10 of the molar value.

The text below walks through data of patent publication US12637410B2, “Vesicular monoamine transporter-2 ligands and their use in the treatment of psychostimulant abuse” (priority 2016, dated 2026).

One series addresses T1, VMAT2 (Rattus norvegicus, UniProt Q01827).
T1 construct: from tissue; host or cells: rat striatum, isolated synaptic vesicles
Briefly: [3H]Dopamine ([3H]DA) uptake assay, vesicular preparation. The class given is biochemical.

The conditions of series [1]: both, 0.08 µM, pH 7.4.
Method: (§1) Each plate holds triplicate samples of two controls (0.4 mM) and up to 14 compounds (0.08 mM) in rat and human liver microsomes. Aliquots of each well of the plate (175 μl of each well) were transferred from the master plate into 5 assay plates. […] NADPH regenerating system solution A (6.05 ml, Fisher Scientific, #NC9255727) was combined with NADPH regenerating system solution B (1.21 ml, Fisher Scientific, #NC9016235) in potassium phosphate buffer (15.8 ml, 0.1 M, pH 7.4, 37° C.). The resulting NADPH solution (43.8 μl) was added to each well of all the 96-well assay plates and mixed with pipette briefly making the final protein and compound concentrations respectively: 0.5 mg/ml, 0.08 μM (0.4 μM for controls). Plates were sealed, and all plates except the 0-hr plate were incubated at 37° C., shaken at a speed of 60 rpm. A single assay plate was tested at each time point: 0.5 hr, 1 hr, 2 hr, and 4 hr. At each time point, 437.5 μL of pre-cooled internal standard was added each well of the plate to quench the reaction. […] 120 μl supernatant was transferred to a 96-well plate, centrifuged again and analyzed by UPLC-MS (Waters Inc., Milford, MA). The compounds and internal standard were detected by selected ion recording (SIR).
(§2) The amount of material was measured as a ratio of peak area to the internal standard and graphed. Using the slope from the initial linear portion of this curve, the degradation rate constant is calculated using equation [1]. The rate constant was then used to calculate the compounds half-life in plasma using equation [2].
The conditions of series [2]: female, Sprague-Dawley, 0.08 µM, pH 7.4.
Method: as §1, §2
The next series deals with T2, hERG channel (Homo sapiens, UniProt Q12809).
T2 construct: purchased; host or cells: HEK-293 cells stably expressing hERG (membranes)
T2 sequence (Q12809 whole entry): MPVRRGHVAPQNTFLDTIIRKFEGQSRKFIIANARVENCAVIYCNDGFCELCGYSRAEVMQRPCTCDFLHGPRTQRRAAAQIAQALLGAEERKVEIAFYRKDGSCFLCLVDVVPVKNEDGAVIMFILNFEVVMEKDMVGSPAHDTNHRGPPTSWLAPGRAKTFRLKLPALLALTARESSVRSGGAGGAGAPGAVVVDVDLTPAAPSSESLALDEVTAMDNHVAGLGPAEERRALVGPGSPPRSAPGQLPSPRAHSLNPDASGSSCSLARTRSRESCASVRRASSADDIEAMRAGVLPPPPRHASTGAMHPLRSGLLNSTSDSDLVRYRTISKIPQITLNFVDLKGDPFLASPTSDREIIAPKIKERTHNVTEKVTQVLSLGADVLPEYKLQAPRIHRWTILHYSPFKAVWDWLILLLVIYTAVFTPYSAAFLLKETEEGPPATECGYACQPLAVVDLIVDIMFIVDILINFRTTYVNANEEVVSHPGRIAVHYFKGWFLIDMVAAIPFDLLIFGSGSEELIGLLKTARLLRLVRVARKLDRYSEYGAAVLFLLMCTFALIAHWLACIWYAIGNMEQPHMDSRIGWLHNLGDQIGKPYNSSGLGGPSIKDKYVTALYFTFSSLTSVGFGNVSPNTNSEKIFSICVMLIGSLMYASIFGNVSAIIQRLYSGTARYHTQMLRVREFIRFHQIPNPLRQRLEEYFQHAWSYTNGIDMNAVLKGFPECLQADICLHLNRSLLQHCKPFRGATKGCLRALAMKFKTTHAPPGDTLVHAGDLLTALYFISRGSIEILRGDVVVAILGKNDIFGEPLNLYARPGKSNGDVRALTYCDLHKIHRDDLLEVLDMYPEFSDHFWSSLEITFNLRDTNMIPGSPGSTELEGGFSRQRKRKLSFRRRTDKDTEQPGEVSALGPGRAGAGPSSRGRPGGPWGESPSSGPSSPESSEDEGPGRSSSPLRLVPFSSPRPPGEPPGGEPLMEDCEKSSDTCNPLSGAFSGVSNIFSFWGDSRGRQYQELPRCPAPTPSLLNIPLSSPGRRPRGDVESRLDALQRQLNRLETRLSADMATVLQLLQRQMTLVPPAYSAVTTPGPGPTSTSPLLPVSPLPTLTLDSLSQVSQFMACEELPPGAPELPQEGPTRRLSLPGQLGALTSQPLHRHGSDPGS
Briefly: [3H]Dofetilide binding assay, HEK-293 cell membrane preparation. The settings on record: hERG Binding: Mean Ki (nM). On the procedure: Membranes were suspended in assay buffer (50 mM Tris, 10 mM KCl, 1 mM MgCl2, pH 7.4) prior to the experiment. […] Nonspecific binding was determined in the presence of amitriptyline (1 mM). Samples were incubated for 1 hr. at 24° C., followed by rapid filtration.
Background: Block of hERG is tested as a sign of cardiac risk.

The nature of another series: in vivo. The settings on record: male, Sprague-Dawley, rat.
Series [3] is described as follows: Microsomal assays, rat liver microsomes. The settings on record: female, Sprague-Dawley, rat, pH 7.4. Background: Microsomes from liver hold many membrane-bound enzymes, among them those of drug oxidation.
Method: as §1, §2
Series [4] is described as follows: Pharmacokinetic assays in rats (iv, po, sc). The settings on record: rat.
Method: (§3) Animals: Oral and intravenous dose pharmacokinetic studies were conducted in tandem in age matched female Swiss Webster mice and/or age matched male Sprague-Dawley rats purchased from Envigo-Harlan. Animals were housed in IVC cages with wood chip bedding and given food and water ad libitum.
(§4) Dose Formulation and Administration Volumes: Hydrochloric acid salts or free base forms were used for formulation.
(§5) Pharmacokinetic Studies: Groups of 6 animals were dosed with formulated test compound by bolus lateral tail vein injection (iv), by oral gavage (po), or by subcutaneous injection (sc) into left hind flank. […] Whole blood samples were collected into microtubes and centrifuged at 4000×g for 2 min. Plasma supernatants were collected and immediately frozen on dry ice, then transferred to a −80° C. freezer to await processing for LC-MS/MS analysis. Typical dose rates were 2 mg/kg iv, 10 mg/kg po, and <30 mg/kg sc.
(§6) Plasma calibrators (usually 0.25, 0.5, 1, 5, 15, 30, 100, 400, 700, and 1000 ng/mL) were generated by the addition of 5 μL of appropriate spiking solution into 100 μL blank plasma followed by vortex mixing. Plasma QC samples (usually 0.75, 25, 500, and 850 ng/mL) were prepared in a similar manner using an independent 2nd analyte stock solution. Calibrators and QCs were stored alongside experimental samples at −80° C. until analysis.
(§7) Analyte and internal standard contained in 5 μL sample injections (15° C. temp.; 1.5 mL 0.1% formic acid in MeOH or 1:1 MeOH: isopropanol injector rinse; 10 sec rinse dip time) were eluted from a guard-protected (2.7 μL, 3×5 mm) Agilent Poroshell 120 EC-C18 (2.7 μL, 3×50 mm; oven temp. 40° C.) analytical column with a 0.1% formic acid in water (mobile Phase-A): 0.1% formic acid in acetonitrile (mobile Phase-B) gradient. […] Positive-mode ESI Turbo V® source and MS gas, temperature, and probe settings were optimized for 0.4 mL flow rate at CUR=35/ISV=4500/TEM=550/GS1=65/GS2=65/CAD=10 with the probe position=7/0.5 horizontal/vertical. […] ISTD voltage potentials were set at DP=70, EP=10, CE=35 and CXP=6. Sample sequences consisted of single randomized experimental sample injections flanked by sets of blanks, calibrators and QCs with QCs interspersed, as needed, to maintain >5% total QC to experimental sample occurrence. High QCs (5,000 and 10,000 ng/mL) were inserted at end of sequence prior to second calibrator injections. Calibration curves were typically constructed by weighted (1/x^2) non-linear regression analysis of analyte/ISTD concentration ratios to analyte/ISTD peak area ratios using AB SciexMultiQuant software (Ver 3.0.31721.0).
Series [5] has as its target dopamine transporter (DAT) (Rattus norvegicus, UniProt P23977). Briefly: [3H]DA uptake assay, synaptosomal preparation.
Method: [^3H]DA and [3H]5-HT uptake into striatal synaptosomes was determined to evaluate compound inhibition of the dopamine transporter (DAT) and the serotonin transporter (SERT), respectively. […] Assays were performed in duplicate in a total volume of 500 μL (for DAT assays) or 250 μL (for SERT assays). Aliquots of the synaptosomal suspension (25 μL for DAT, 50 μL for SERT) were added to tubes containing assay buffer and various concentrations of analog (1 nM-100 μM), and incubated at 34° C. for 5 min. Nonspecific uptake was determined in the presence of nomifensine (10 μM) for DAT assays or fluoxetine (10 μM) for SERT assays. […] Samples were placed on ice, and 50 μL of 0.1 μM [^3H]DA (for DAT assays) or 25 μL of 0.1 μM [^3H]5-HT (for SERT assays) was added to each tube, and incubated for 10 min at 34° C. Reactions were terminated by addition of 3 mL of ice-cold assay buffer and subsequent filtration and radioactivity retained by the filters was determined by liquid scintillation spectrometry (Tri-Carb 2100TR liquid scintillation analyzer; PerkinElmer Life and Analytical Sciences, Boston, MA).
Series [6] in a line: in vitro. The conditions noted are these: female, Sprague-Dawley, rat, pH 7.4.
Method: as §1, §2
A short description of series [7]: in vitro. The settings on record: both, human, pH 7.4.
Method: as §1, §2
The next series deals with rat striatal slices. The settings on record: cited from earlier work.
The subject of another series is METH self-administration. The conditions noted are these: in vivo; cited from earlier work.
Series [8] has as its system METH-stimulated locomotor activity. Briefly: METH-stimulated locomotor activity in rats. It counts as in vivo, rat. The conditions noted are these: s.c. The method, then: A series of VMAT2 inhibitors were synthesized and evaluated for their activity at VMAT2, dopamine transporters (DAT), and serotonin transporters (SERT) using rat striatum, hERG channels expressed by HEK-293 cells, and for their effect on METH-stimulated locomotor activity in rats.
The compounds of the invention were also evaluated for their effect on METH-stimulated locomotor activity in rats.

The mark [9] stands for this setting: [3H]dofetilide binding, HEK-293 membranes, mean of n>=3 unless N given.

Chain of dopamine transporter (DAT) (P23977 whole entry): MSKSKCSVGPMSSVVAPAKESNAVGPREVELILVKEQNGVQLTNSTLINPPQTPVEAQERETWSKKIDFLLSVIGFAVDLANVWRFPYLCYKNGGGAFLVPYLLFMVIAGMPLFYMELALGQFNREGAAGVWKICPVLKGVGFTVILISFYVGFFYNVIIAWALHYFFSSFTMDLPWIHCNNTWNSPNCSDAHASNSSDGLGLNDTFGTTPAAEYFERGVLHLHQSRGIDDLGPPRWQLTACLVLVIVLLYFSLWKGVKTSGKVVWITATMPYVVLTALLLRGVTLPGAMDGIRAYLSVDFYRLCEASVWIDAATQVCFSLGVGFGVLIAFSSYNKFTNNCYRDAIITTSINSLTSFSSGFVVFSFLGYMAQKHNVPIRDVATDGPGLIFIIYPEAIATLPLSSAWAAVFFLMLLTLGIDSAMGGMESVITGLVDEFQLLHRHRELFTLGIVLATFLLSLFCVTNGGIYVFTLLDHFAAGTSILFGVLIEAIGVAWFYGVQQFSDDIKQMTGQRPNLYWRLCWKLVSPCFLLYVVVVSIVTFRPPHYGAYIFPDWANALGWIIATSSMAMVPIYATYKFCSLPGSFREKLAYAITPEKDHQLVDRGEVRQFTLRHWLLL
T1 sequence (Q01827 whole entry): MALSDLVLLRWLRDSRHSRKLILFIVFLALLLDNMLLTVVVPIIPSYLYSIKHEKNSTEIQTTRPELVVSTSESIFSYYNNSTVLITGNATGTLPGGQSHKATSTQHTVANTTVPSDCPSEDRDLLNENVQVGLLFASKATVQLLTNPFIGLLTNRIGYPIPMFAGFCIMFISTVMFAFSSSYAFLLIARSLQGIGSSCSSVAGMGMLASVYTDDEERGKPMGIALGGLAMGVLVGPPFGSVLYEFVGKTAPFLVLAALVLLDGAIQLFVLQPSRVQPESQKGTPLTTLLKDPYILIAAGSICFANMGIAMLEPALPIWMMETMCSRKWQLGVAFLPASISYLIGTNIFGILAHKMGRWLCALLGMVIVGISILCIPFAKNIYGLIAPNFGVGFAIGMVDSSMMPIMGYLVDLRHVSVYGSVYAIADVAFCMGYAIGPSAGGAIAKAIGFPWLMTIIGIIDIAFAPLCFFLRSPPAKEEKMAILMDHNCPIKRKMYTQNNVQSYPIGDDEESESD
Method for in vivo: as §3, §4, §5, §6, §7

Broadly, the pKi is −log10 of the Ki, conventionally taken in molar units. Lower therefore signals a large Ki. `FCC(Cc1ccc(-c2cncnc2)cc1)NCCCc1ccc(F)cc1` (stereo not shown) [Compound 68]: the pKi at VMAT2 was 8.30. For the same compound, the “Microsomal stability assays: Species/Half-life (hr) Human” value in [1] is 0.1 h.

Consider `OCC(Cc1ccc(F)cc1)NCCCc1ccc(Br)cc1` (stereo not shown) [Compound 154], for which the “Microsomal stability assays: Species/Half-life (hr) Rat” value in [2] came to 0.1 h.

Usually Ki stands for a dissociation constant, usually derived from enzyme kinetics or from competition with a known ligand. Low readings indicate a stronger hold on the target, high ones a looser hold on the target. For orientation: bioavailability means dose-corrected exposure relative to a reference, in per cent. Lower therefore signals little systemic uptake. As a reminder, the CLint scaled is the capacity of the preparation to metabolise the compound, expressed as a volume cleared per time. A higher CLint scaled goes with rapid turnover. As for `CC(Cc1ccc(F)c(F)c1)NCCCc1ccc(S(N)(=O)=O)cc1` (stereo not shown) [Compound 230], the negative-log Ki (pKi) on VMAT2 was 7.38; in series [5], 5.08. Also, the inhibition constant Ki at hERG channel (Table 4, mean, minimally n = 3) turned out to be 1030 nM; at hERG channel (setting [9]), 1030 nM. Also, the bioavailability is 94% in “in vivo” (po) and 44% in “in vivo” (sc). In addition, the CLint scaled at 0.08 µM in [3] was below 17 mL/min/kg. Further, the “Bioavail. (F %) Frat” value in [4] is given as “Frat: >100%”.

For orientation: half-life means the time in which the quantity being followed falls by half. A low value points to rapid decline. In the case of `Fc1ccc(CCCNC(Cc2ccccc2)Cc2ccccc2)cc1` [Compound 292], on VMAT2, the negative logarithm of the Ki (pKi) is 6.46. In addition, the half-life at 0.08 µM in “in vitro [6]” was below 6 min; in the series “in vitro [7]”, 36 min.

For `CN1[C@@H](CCc2ccccc2)CCC[C@H]1CCc1ccccc1` [Lobelane], in the series with rat striatal slices, the “METH-evoked DA overflow” value is “decreases METH-evoked DA overflow”. Moreover, the METH self-administration result in the series on METH self-administration is “decreases METH self-administration”.

Turning to `COc1ccc(CCCN[C@@H](C)Cc2ccccc2)cc1.Cl` [Compound 10, (S)-3-(4-methoxyphenyl)-N-(1-phenylpropan-2-yl)propan-1-amine], the METH-stimulated locomotor activity entry in [8] (17 mg/kg) was “significant reduction”.

As to `CC(Cc1ccc2nccnc2c1)NCCCc1ccc(C(N)=O)cc1` (stereo not shown) [Compound 307], the negative logarithm of the Ki (pKi) is 7.77 at VMAT2 and 5.05 in series [5]. On hERG channel (Table 4, mean, minimally n = 3), this compound registered a Ki of 21000 nM. Also, the bioavailability in “in vivo” (po) is 8%; in “in vivo” (sc), above 100%. In addition, in [3], the intrinsic clearance (CLint scaled) at 0.08 µM stood at 51 mL/min/kg.

`CC(Cc1ccc(F)c(F)c1)NCCCc1ccc(NC(N)=O)cc1` (stereo not shown) [Compound 229]: the pKi is 7.44 on VMAT2 and 5.82 in series [5]. In addition, the Ki at hERG channel (Table 4, mean, minimally n = 3) came to 4290 nM; at hERG channel (setting [9]), 4290 nM. Moreover, the bioavailability in “in vivo” (po) was determined as 94%. The compound further came in with an intrinsic clearance (CLint scaled) at 0.08 µM in series [3] of 41 mL/min/kg. For the same compound, the “Bioavail. (F %) Frat” value in series [4] was “Frat: 22%”.

On VMAT2, `CC(Cc1ccc(F)cc1)NC(=O)CCc1ccc([N+](=O)[O-])cc1` (stereo not shown) [Compound 293] had a negative-log Ki (pKi) of 4.97. In addition, the half-life at 0.08 µM in “in vitro [6]” amounted to 30 min; in “in vitro [7]” it was 24 min.

With `COc1ccc(CCCN[C@H](C)Cc2ccccc2)cc1.Cl` [Compound 9], the METH-stimulated locomotor activity entry in series [8] (3 mg/kg) is given as “significant reduction”.
